Holding throughout (type): cell-based, human
Assay [1] relates to DU145 prostate cancer cells. The following applies: for anti-proliferative activity compared to cisplatin (in words): DU145, one and 48 hours treatment (FIG. 8H); for effect on cell viability (in words): DU145, 1 hour treatment (FIG. 8A, top), up to 1 mM carboplatin, 100 μM Pt(IV)-1C, 50 μM Pt(IV)-2C; for EC50: read-out: EC50 (effective concentration that resulted in 50% cell viability). Here is the method:
(§1) Human breast (HCC38, MCF-7, MDA-MB-231, SK-BR-3, T-47D, and ZR-75-1), lung (A549 and H520), and prostate (DU145 and PC-3) cancer cell lines were obtained from American Culture Type Collection (ATCC). The HCC38, MCF-7, MDA-MB-231, SK-BR-3, T-47D, ZR-75-1, and A549 cells were grown in MEM supplemented with 10% FBS, 25 mM HEPES buffer (pH 7.4), penicillin (100 U/mL), and streptomycin (100 μg/mL). The H520, DU145, and PC-3 cell lines were grown in RPMI-1640 supplemented with 10% FBS, 25 mM HEPES buffer (pH 7.4), penicillin (100 U/mL), and streptomycin (100 μg/mL). All cell lines were maintained at 37° C. in a humidified, 5% CO2 atmosphere.
(§2) Cells were cultured at a density of 2-3.5×10^3 cells per well in flat bottomed 96-well plates in 100 μL of complete growth medium and incubated for 2 days to reach ˜50% confluence. The cells were then treated with solvent or the appropriate drugs (CDDP stock was dissolved in 0.15 M NaCl, carboplatin stock was dissolved in 5% glucose, synthesized Pt(IV) complexes were dissolved in DMSO) for 1 hour, washed three times with 100 μL PBS, and incubated in 100 μL of fresh medium. After 2 days, the medium was replaced with 120 μL of medium containing CellTiter 96® Aqueous One Solution Reagent (MTS reagent) (Promega, Madison, Wis.). The cells were incubated at 37° C. for 4 hours and the cell viability was determined by measuring the absorbance at 490 nm using a Tecan Infinite M1000 microplate reader. The 48 h treatment was done in a similar manner, except the cells were not washed after treatment and the MTS reagent was immediately added. Viability of treated groups was calculated as a percent of control and graphed with GraphPad Prism.
(§3) The anti-proliferative activities of Pt(IV) complexes were determined in two lung (A549 and H520), two prostate (DU145 and PC-3), and six breast (HCC38, MCF-7, MDA-MB-231, SK-BR-3, T-47D, and ZR-75-1) cancer cell lines. The cells were treated with increasing concentrations of cisplatin (CDDP), carboplatin, or the Pt(IV) complexes for 1 or 48 hours, and the viability was measured using an MTS colorimetric cell proliferation assay. Graphs of the results are shown for DU145 (FIG. 8A), PC-3 (FIG. 8B), SK-BR-3 (FIG. 8C), ZR-75-1 (FIG. 8D), A549 (FIG. 8E), and MCF-7 (FIG. 8F).
(§4) The anti-proliferative activities of certain Pt(II) complexes were determined in DU145, PC-3, and SK-BR-3 cells. The cells were treated with increasing concentrations of cisplatin (CDDP) or the Pt(II) complexes for 1 or 48 hours, and the viability was measured using an MTS colorimetric cell proliferation assay.

Assay [2] concerns SK-BR-3 breast cancer cells. In words: MTS cell viability assay, SK-BR-3. As to conditions: for anti-proliferative activity compared to cisplatin (in words): SK-BR-3, one and 48 hours treatment (FIG. 8G); for EC50: read-out: EC50 (effective concentration that resulted in 50% cell viability). Here is the method: as §1, §2, §3, §4
In general terms: Tetrazolium assays rely on reduction of a dye to a coloured formazan, in cell work by metabolically active cells.

Assay [3] deals with PC-3 prostate cancer cells. In words: MTS cell viability assay, PC-3. The following applies: for anti-proliferative activity compared to cisplatin (in words): PC-3, one and 48 hours treatment (FIG. 8I); for EC50: read-out: EC50 (effective concentration that resulted in 50% cell viability). The procedure:
as §1, §2, §3, §4

The subject of assay [4] is HCC38 breast cancer cells. In words: MTS cell viability assay, HCC38. The following applies: read-out: EC50 (effective concentration that resulted in 50% cell viability). The procedure: as §1, §2, §3
Assay [5] concerns MCF-7 breast cancer cells. Nature of the assay: MTS cell viability assay, MCF-7. The following applies: for EC50: read-out: EC50 (effective concentration that resulted in 50% cell viability). Here is the method:
as §1, §2, §3

The subject of assay [6] is T-47D breast cancer cells. In words: MTS cell viability assay, T-47D. Here is the method: as §1, §2, §3
The next assay relates to H520 lung cancer cells. Nature of the assay: MTS cell viability assay, H520. As to conditions: read-out: EC50 (effective concentration that resulted in 50% cell viability). Here is the method:
as §1, §2, §3

For another assay, the system named is A549 lung cancer cells. Nature of the assay: MTS cell viability assay, A549. As to conditions: for EC50: read-out: EC50 (effective concentration that resulted in 50% cell viability). Here is the method:
as §1, §2, §3

Assay [7] has as its system ZR-75-1 breast cancer cells. In words: MTS cell viability assay, ZR-75-1. As to conditions: read-out: EC50 (effective concentration that resulted in 50% cell viability). The procedure:
as §1, §2, §3

Assay [8] relates to MDA-MB-231 breast cancer cells. Nature of the assay: MTS cell viability assay, MDA-MB-231. The following applies: read-out: EC50 (effective concentration that resulted in 50% cell viability). Here is the method: as §1, §2, §3

Read-outs that look alike come from different tables or passages of the source.

`CCOC(=O)c1ccnc(-c2cc(C(=O)OCC)ccn2)c1.[Cl][Pt][Cl]` [Pt(II)-COOC2]: the “anti-proliferative activity compared to cisplatin (in words)” value in [1], in assay [2] and in [3] was “generally more effective than cisplatin” each time.
For `CC(=O)[O][Pt]([Cl])([Cl])[O]C(C)=O.CCOc1ccnc(-c2cc(OCC)ccn2)c1` [Pt(IV)-2C, [Pt(IV)Cl2(OAc)2(4,4′-diethoxy-2,2′-bipyridine)]], the “effect on cell viability (in words)” value is reported as “did not have any effects” in assay [1]; “had no effect” in assay [5] (MCF-7, 48 hour treatment (FIG. 8F)); “had no effect” in the assay on A549 lung cancer cells (A549, 48 hour treatment (FIG. 8E)). In addition, the EC50 was above 50 µM in [1] (DU145, 1 h treatment, Table 3); 10 ± 4 µM in [1] (DU145, 48 h, Table 5); 93 ± 10 µM in [4] (HCC38, 1 h treatment, Table 3); 30 ± 9 µM in [4] (HCC38, 48 h, Table 5); 40 ± 10 µM in [2] (SK-BR-3, 1 h treatment, Table 3); 8.3 ± 0.7 µM in assay [2] (SK-BR-3, 48 h, Table 5). Besides, the EC50 is above 100 µM in assay [5] (MCF-7, 1 h treatment, Table 3); above 100 µM in [5] (MCF-7, 48 h, Table 5); 46 ± 8 µM in [6] (1 h treatment, Table 3, read-out: EC50 (effective concentration that resulted in 50% cell viability)); 0.95 ± 0.03 µM in assay [6] (48 h, Table 5, read-out: EC50 (effective concentration that resulted in 50% cell viability)); above 100 µM in the assay with H520 lung cancer cells (H520, 1 h treatment, Table 3); 61 ± 2 µM with H520 lung cancer cells (H520, 48 h, Table 5). In addition, the EC50 in [3] (PC-3, 1 h treatment, Table 3) was above 50 µM; in assay [3] (PC-3, 48 h, Table 5) it was 20 ± 2 µM; with A549 lung cancer cells (A549, 1 h treatment, Table 3), above 50 µM; in the assay on A549 lung cancer cells (A549, 48 h, Table 5) it was above 50 µM; in assay [7] (ZR-75-1, 1 h treatment, Table 3), above 50 µM; in [7] (ZR-75-1, 48 h, Table 5), 17 ± 7 µM. The EC50 was above 100 µM in [8] (MDA-MB-231, 1 h treatment, Table 3) and 28 ± 7 µM in assay [8] (MDA-MB-231, 48 h, Table 5).
`CCOCCOCCOC(=O)c1ccnc(-c2cc(C(=O)OCCOCCOCC)ccn2)c1.[Cl][Pt][Cl]` [Pt(II)-COO(C2O)2C2]: the “anti-proliferative activity compared to cisplatin (in words)” value in assay [1], in assay [2] and in assay [3] was “not as effective as cisplatin” in each case. Further, the “reduction in cell viability, one hour versus 48 hours treatment” value in assay [2] (SK-BR-3 (FIG. 8G)) was “greater reduction in cell viability than when they were treated for 48 hours”.
With `CCCCCOc1ccnc(-c2cc(OCCCCC)ccn2)c1.[Cl][Pt][Cl]` [Pt(II)-5C], the EC50 in assay [1] (DU145, 1 h treatment, Table 2) worked out at 8 ± 2 µM; in [1] (DU145, 48 h treatment, Table 4) it was 6 ± 0.7 µM; in [4] (HCC38, 1 h treatment, Table 2), 13 ± 5 µM; in [4] (HCC38, 48 h treatment, Table 4), 10 ± 2 µM; in assay [2] (SK-BR-3, 1 h treatment, Table 2) it was 2.8 ± 0.8 µM; in [2] (SK-BR-3, 48 h treatment, Table 4), 2.4 ± 0.4 µM. Moreover, the EC50 was determined as 21 ± 5 µM in [5] (MCF-7, 1 h treatment, Table 2); 15 ± 7 µM in assay [5] (MCF-7, 48 h treatment, Table 4); 9 ± 3 µM in assay [6] (1 h treatment, Table 2, read-out: EC50 (effective concentration that resulted in 50% cell viability)); 3 ± 1 µM in assay [6] (48 h treatment, Table 4, read-out: EC50 (effective concentration that resulted in 50% cell viability)); 23 ± 5 µM in the assay with H520 lung cancer cells (H520, 1 h treatment, Table 2); 17 ± 3 µM in the assay on H520 lung cancer cells (H520, 48 h treatment, Table 4). Moreover, the EC50 is 7 ± 1 µM in assay [3] (PC-3, 1 h treatment, Table 2); 7.3 ± 0.7 µM in [3] (PC-3, 48 h treatment, Table 4); 18 ± 1 µM with A549 lung cancer cells (A549, 1 h treatment, Table 2); 16.5 ± 0.5 µM in the assay with A549 lung cancer cells (A549, 48 h treatment, Table 4); 8 ± 3 µM in assay [7] (ZR-75-1, 1 h treatment, Table 2); 6.6 ± 0.7 µM in assay [7] (ZR-75-1, 48 h treatment, Table 4). The EC50 in assay [8] (MDA-MB-231, 1 h treatment, Table 2) worked out at 4 ± 2 µM; in assay [8] (MDA-MB-231, 48 h treatment, Table 4), 4.1 ± 0.2 µM.
Regarding `COC(=O)c1ccnc(-c2cc(C(=O)OC)ccn2)c1.[Cl][Pt][Cl]` [Pt(II)-COOC1], the “anti-proliferative activity compared to cisplatin (in words)” value in [1], in assay [2] and in assay [3] was “generally more effective than cisplatin” throughout.
Turning to `CCCCCCCCOC(=O)c1ccnc(-c2cc(C(=O)OCCCCCCCC)ccn2)c1.[Cl][Pt][Cl]` [Pt(II)-COOC8], the “anti-proliferative activity compared to cisplatin (in words)” value in assay [1], in assay [2] and in assay [3] was “generally more effective than cisplatin” throughout.
On to `N.N.O=C([O-])C1(C(=O)[O-])CCC1.[Pt+2]` [Carboplatin, carboplatin, reference compound], for which the “effect on cell viability (in words)” value in assay [1] is given as “no effect”. In addition, the EC50 in assay [1] (DU145, 1 h treatment, Table 2) is above 1000 µM; in [1] (DU145, 1 h treatment, Table 3), above 1000 µM; in [1] (DU145, 48 h, Table 5) it was 400 ± 100 µM; in assay [1] (DU145, 48 h treatment, Table 4), 400 ± 100 µM; in assay [5] (MCF-7, 1 h treatment, Table 2), above 1000 µM; in [5] (MCF-7, 1 h treatment, Table 3), above 1000 µM. Further, the EC50 in [5] (MCF-7, 48 h, Table 5) was 800 ± 100 µM; in [5] (MCF-7, 48 h treatment, Table 4), 800 ± 100 µM; with A549 lung cancer cells (A549, 1 h treatment, Table 2) it was above 1000 µM; in the assay with A549 lung cancer cells (A549, 1 h treatment, Table 3), above 1000 µM; in the assay with A549 lung cancer cells (A549, 48 h, Table 5), 300 ± 30 µM; in the assay with A549 lung cancer cells (A549, 48 h treatment, Table 4), 300 ± 30 µM.

Values taken from patent US10316050B2, “PT (IV) complexes containing 4,4′-disubstituted-2,2′-bipyridyl and their use in cancer therapy” (THE BOARD OF REGENTS OF THE NEVADA SYSTEM OF HIGHER …, priority 2014, dated 2019).
